Experiments:
Type in all cases: cell-based, mouse
[1] = system: α7 integrin (LacZ reporter in α7+/LacZ myotubes); assay: Myotube α7 integrin FDG assay (Burkin assay in myotubes, 96-well); conditions: myotubes
[2] = system: α7 integrin (LacZ reporter in α7βgal+/− myoblasts); assay: Myoblast α7+/LacZ integrin FDG assay (Burkin assay in myoblasts, 96-well); conditions: α7+/LacZ myoblasts, 96-well
[3] = system: β-galactosidase in CMV-LacZ C2C12 myoblasts; assay: CMV-LacZ secondary screen in C2C12 myoblasts (β-Gal stabilizing assay); conditions: CMV-LacZ C2C12 myoblasts
Outline: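 First, C2C12 myoblasts were transfected with a linearized CMV-LACZ vector and clonal lines selected by FDG β-gal assay. Then cells were exposed to compounds at 0.5, 1, 5, 10, 20 and 40 μM in 96-well format, two replicates each, and β-gal measured.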

[4] = system: β-galactosidase in CMV-LacZ C2C12 myotubes; assay: CMV-LacZ secondary screen in C2C12 myotubes (β-Gal stabilizing assay); conditions: C2C12 CMV-LacZ myotubes, fold relative to DMSO
Outline: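 CMV-LacZ C2C12 line (clonal, FDG-screened); myoblasts/myotubes dosed 0.5–40 μM (0.5, 1, 5, 10, 20, 40 μM); n=2 per point; β-gal stabilization read-out.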

Compound	Burkin Assay in Myotubes, α7 integrin LacZ reporter signal relative to DMSO ([1]; 0.5 uM)	Burkin Assay in Myotubes, α7 integrin LacZ reporter signal relative to DMSO ([1]; 1 uM)	Burkin Assay in Myotubes, α7 integrin LacZ reporter signal relative to DMSO ([1]; 5 uM)	Burkin Assay in Myotubes, α7 integrin LacZ reporter signal relative to DMSO ([1]; 10 uM)	Burkin Assay in Myotubes, α7 integrin LacZ reporter signal relative to DMSO ([1]; 20 uM)	Burkin Assay in Myotubes, α7 integrin LacZ reporter signal relative to DMSO ([1]; 40 uM)	Burkin Assay in Myoblasts, signal relative to DMSO ([2]; 0.5 uM)	Burkin Assay in Myoblasts, signal relative to DMSO ([2]; 1 uM)	Burkin Assay in Myoblasts, signal relative to DMSO ([2]; 5 uM)	Burkin Assay in Myoblasts, signal relative to DMSO ([2]; 10 uM)	Burkin Assay in Myoblasts, signal relative to DMSO ([2]; 20 uM)	Burkin Assay in Myoblasts, signal relative to DMSO ([2]; 40 uM)	CMV-LACZ in Myoblasts (β-galactosidase activity relative to DMSO) ([3]; 0.5 uM)	CMV-LACZ in Myoblasts (β-galactosidase activity relative to DMSO) ([3]; 1 uM)	CMV-LACZ in Myoblasts (β-galactosidase activity relative to DMSO) ([3]; 5 uM)	CMV-LACZ in Myoblasts (β-galactosidase activity relative to DMSO) ([3]; 10 uM)	CMV-LACZ in Myoblasts (β-galactosidase activity relative to DMSO) ([3]; 20 uM)	CMV-LACZ in Myoblasts (β-galactosidase activity relative to DMSO) ([3]; 40 uM)	CMV-LACZ in Myotubes, signal relative to DMSO ([4]; 0.5 uM)	CMV-LACZ in Myotubes, signal relative to DMSO ([4]; 1 uM)	other results
Cn1ccc(C(=O)Nc2cccnc2Cl)n1 [MLS001147478-01]	1.076	0.9677	0.9933	1.041	0.8876	0.8744	1.142	1.091	1.0569	1.192	0.9651	0.8215	1.0721	0.8808	1.2105	1.2999	1.0513	0.8747	1.3536	1.3827	CMV-LACZ in Myotubes, signal relative to DMSO ([4]; 5 uM): 0.8937; CMV-LACZ in Myotubes, signal relative to DMSO ([4]; 10 uM): 1.2959; CMV-LACZ in Myotubes, signal relative to DMSO ([4]; 20 uM): 1.0810; CMV-LACZ in Myotubes, signal relative to DMSO ([4]; 40 uM): 0.9510
Cc1[nH]c(=O)[nH]c(=O)c1S(=O)(=O)Nc1ccc(F)cc1Cl [MLS001200149-01]	1.26	1.072	1.069	1.094	0.9286	0.8363	1.039	1.156	1.0782	0.998	1.021	0.9876	1.1234	0.9203	0.9489	1.0523	0.9363	1.1552	0.8378	0.9933	CMV-LACZ in Myotubes, signal relative to DMSO ([4]; 5 uM): 0.9974; CMV-LACZ in Myotubes, signal relative to DMSO ([4]; 10 uM): 0.8176; CMV-LACZ in Myotubes, signal relative to DMSO ([4]; 20 uM): 0.8318; CMV-LACZ in Myotubes, signal relative to DMSO ([4]; 40 uM): 0.9424
CC1(C)Cc2c(c(N3CCOCC3)nc3sc(C(=O)Nc4ccccc4)c(N)c23)CO1 [MLS001075922-01]	1.292	1.143	0.6556	0.629	1.067	0.8243	1.2085	1.292	0.6039	0.2869	0.5678	0.6464	0.9434	1.3028	1.6332	1.2361	0.9881	1.3037	1.0222	1.0533	CMV-LACZ in Myotubes, signal relative to DMSO ([4]; 5 uM): 1.2947; CMV-LACZ in Myotubes, signal relative to DMSO ([4]; 10 uM): 1.2173; CMV-LACZ in Myotubes, signal relative to DMSO ([4]; 20 uM): 1.0282; CMV-LACZ in Myotubes, signal relative to DMSO ([4]; 40 uM): 0.8388
